We go through 19 molecules from patent publication US9169295B2, “Macrocycles and macrocycle stabilized peptides” (Bristol-Myers Squibb Company, priority 2010, dated 2015).

For data set [1] the following is noted: other bond.
The nature of data set [2]: far-UV circular dichroism (CD) spectra with secondary structure estimated by deconvolution (α-helicity of MSP vs linear peptide). The format is physicochemical. The settings on record: 25° C. As to the method:
To examine the α-helicity of the macrocycle stabilized peptides prepared according to the methods of the present invention, the far-UV circular dichrosim (CD) spectra of linear and macrocyclic peptides were measured and compared. Linear peptide of Example 93 and MSP of Example 93 as dry powder were prepared. A sample of each was weighed into a fresh 20 mL glass vial, and dissolved in anhydrous methanol (B&J), with vortexing for ˜1 min, to yield solutions with concentrations of 200 μM. The concentrations were based on the observed mass of peptide and the respective formula weights. The solutions were transferred to 1.8 mL polypropylene tubes, and centrifuged in a table top microcentrifuge for 5 min at rt and 14,000 rpm to pellet any insoluble material. The supernatants were transferred to clean 1.8 mL tubes for preparing final samples for analysis by circular dichroism (CD). Two sets of samples were prepared, one in 100% methanol at 200 μM peptide, the other in 50% aqueous methanol at 100 μM peptide prepared by adding an equal volume of ddH2O to stock methanol solutions.
Samples were transferred to clean 1 mm quartz cuvettes and CD analysis performed in a JASCO J=815 instrument, and temperature maintained at 25° C. Each peptide sample was scanned from 200-450 nm, using a bandwidth of 1.00 nm, standard sensitivity, data pitch of 0.1 nm, digital integration time of 4.0 sec, a scan speed of 20 nm/min, and 6 acquisitions averaged per sample. Blank solvent samples (100% methanol and 50% aqueous methanol) were recorded simultaneously and subtracted from the peptide spectra prior to final analysis. For calculation of mean residue molar ellipticity (Θ^MRW), the peptide concentration was multiplied by 12 to reflect the number of peptide residues in each molecule. Following blank corrections, the CD data for each peptide in each solvent was corrected for total mean residue ellipticity, and the secondary structure composition estimated by deconvolution using CDPRO module within the JASCO software. Three different algorithms were used for convolution (SELCON, CDSSTR and CONTIN), using the data obtained from 200-240 nm and a 56 protein reference data set. Each algorithm yielded similar distribution of secondary structure elements, and the final results reported as the mean and standard deviation from the three deconvolutions.
The deconvolution algorithms yield secondary structural elements of two types of α-helical structure, two types of […] structure, β-turn structure, and unstructured or random structure. The results reflect the average of summed α-helical forms, summed β-strand forms, the β-turn and unstructured forms from the three algorithms for the peptides in 100% methanol. The overlaid spectra illustrate the difference in signal in the far uv-region (200-240 nm) for the two related peptides in 100% methanol.

The conditions of data set [3]: the molecule shown is the open-chain precursor; other bond; 16-membered ring; TfOH; MeNO2; 13.4 mM; 25.0 °C.
The mark [4] stands for this setting: from (5-(hydroxymethyl)thiazol-2-yl)-Val(D/L)-Gly-Tyr-NH2?, 16-membered ring, TfOH, MeNO2, 25.0 °C, 2 steps.
Setting [5] is: from (5-(hydroxymethyl)thiazol-2-yl)-Val(D/L)-Ala-Ala-Tyr-NH2?, 19-membered ring, TfOH, MeNO2, 11.0 mM, 25.0 °C, 2 steps.
[6] abbreviates: 50% aqueous methanol, 100 μM peptide.
Setting [7] is: 100% methanol, 200 μM peptide, CD 200-240 nm, mean of three deconvolution algorithms.
The mark [8] stands for this setting: from (5-(hydroxymethyl)thiazol-2-yl)-Val(D/L)-Ala-Ala-Ala-Ala-Tyr-NH2?, 25-membered ring, TfOH, MeNO2, 6.0 mM, 25.0 °C, 2 steps.

Like-named read-outs stand apart in the source and are kept apart here.

As to `C[C@@H]1NC(=O)[C@H](C)NC(=O)[C@H](Cc2ccccc2)NC(=O)CNC2=NC=C(Cc3cc(ccc3O)C[C@@H](C(N)=O)NC1=O)S2` [Thia-G-F-A-A-Y—CONH2 (SEQ ID NO. 10) macrocycle], the ring closure, yield after HPLC in data set [1] (from (5-(hydroxymethyl)thiazol-2-yl)-Gly-Phe-Ala-Ala-Tyr-NH2?, 22-membered ring, TfOH, MeNO2, 11.5 mM, 25.0 °C, 2 steps) is 68.5%.

Consider `CC(C)[C@H]1NC2=NC=C(Cc3cc(ccc3O)C[C@@H](C(N)=O)NC(=O)CNC1=O)S2` [Thia-V(d)GY], for which, in data set [1] (setting [4]), the ring closure, yield after HPLC turned out to be 22%.

Molecule `C[C@@H]1NC(=O)CNC2=NC=C(Cc3cc(ccc3O)C[C@@H](C(=O)NCC(=O)O)NC(=O)[C@H](C)NC(=O)[C@H](C)NC1=O)S2` returned a ring closure, yield after HPLC in data set [1] (from (5-(hydroxymethyl)thiazol-2-yl)-Gly-Ala-Ala-Ala-Tyr-Gly-OtBu?, 22-membered ring, TfOH, NMM quench, nitromethane, 11.8 mM, 25.0 °C) of 42%.

Molecule `C[C@@H]1NC(=O)CNC2=NC=C(Cc3cc(ccc3O)C[C@@H](C(N)=O)NC1=O)S2` [“Thia-G-A-Y” Macrocycle] gave a ring closure, yield after HPLC in data set [1] (from (5-(hydroxymethyl)thiazol-2-yl)-Gly-Ala-Tyr-NH2, 16-membered ring, TfOH, MeNO2, 7.0 mM, 25.0 °C) of 56%.

`CC(C)[C@H]1NC2=NC=C(Cc3cc(ccc3O)C[C@@H](C(N)=O)NC(=O)CNC1=O)S2` [Thia-V(l)GY]: the ring closure, yield after HPLC in data set [1] (setting [4]) worked out at 19%.

In data set [1] (from Boc-Tyr-Ala-Ala-Ala-NH-(CH2)3-NH-[5-(hydroxymethyl)thiazol-2-yl]?, 24-membered ring, TfOH, NMM quench, nitromethane, 9.9 mM), `C[C@@H]1NC(=O)[C@H](C)NC(=O)[C@H](C)NC(=O)[C@@H](N)Cc2ccc(O)c(c2)CC2=CN=C(NCCCNC1=O)S2` [Macrocycle] returned a ring closure, yield after HPLC of 15.4%.

In data set [1] (setting [5]), `CC(C)[C@H]1NC2=NC=C(Cc3cc(ccc3O)C[C@@H](C(N)=O)NC(=O)[C@H](C)NC(=O)[C@H](C)NC1=O)S2` [Thia-V(l)AAY (SEQ ID NO. 11)] returned a ring closure, yield after HPLC of 11%.

`C[C@@H]1NC(=O)CNC2=NC=C(Cc3cc(ccc3O)C[C@@H](C(N)=O)NC(=O)[C@H](C)NC1=O)S2` [“Thia-G-A-A-Y” (SEQ ID NO. 9) Macrocycle] showed a ring closure, yield after HPLC in data set [1] (from (5-(hydroxymethyl)thiazol-2-yl)-Gly-Ala-Ala-Tyr-NH2?, 19-membered ring, TfOH, MeNO2, 14.7 mM, 25.0 °C, 2 steps) of 70.2%.

In data set [1] (from (5-(hydroxymethyl)thiazol-2-yl)-Gly-Ala-Ala-Ala-Tyr-Gly-OtBu?, 22-membered ring, TfOH, NMM quench, nitroethane, 5.7 mM, 25.0 °C), `C[C@@H]1NC(=O)CNC2=NC=C(Cc3cc(ccc3O)C[C@@H](C(=O)NCC(=O)O)NC(=O)[C@H](C)NC(=O)[C@H](C)NC1=O)S2` [Macrocycle] gave a ring closure, yield after HPLC of 35%.

The molecule `COc1ccc2cc1CC1=CN=C(NCC(=O)N[C@@H](C)C(=O)NCC(=O)NCC(=O)N3C[C@H](O)[C@@H](O)[C@H]3C2)S1` [Macrocycle Anisomycin-GGAG-Thia] returned a ring closure, yield after HPLC in data set [1] (from (S)-N-(2-(2-((2R,3S,4S)-3,4-Dihydroxy-2-(4-methoxybenzyl)pyrrolidin-1-yl)-2-oxoethylamino)-2-oxoethyl)-2-(2-(5-(hydroxymethyl)thiazol-2-ylamino)acetamido)propanamide?, 22-membered ring) of 53.2%.

The molecule `CC(C)[C@@H]1NC2=NC=C(Cc3cc(ccc3O)C[C@@H](C(N)=O)NC(=O)CNC(=O)[C@H](C)NC(=O)[C@H](C)NC1=O)S2` [Thia-V(l)AAGY (SEQ ID NO. 13) Macrocycle] gave a ring closure, yield after HPLC in data set [1] (from (5-(hydroxymethyl)thiazol-2-yl)-Val-Ala-Ala-Gly-Tyr-NH2?, 22-membered ring, TfOH, MeNO2, 6.45 mM, 25.0 °C, 2 steps) of 52.7%.

Turning to `C[C@H](NC(=O)OCC1c2ccccc2-c2ccccc21)C(=O)N[C@@H](C)C(=O)NNC(=O)[C@@H](C)[C@@H](Cc1ccc(O)cc1)C(=O)N[C@@H](C)C(=O)N[C@@H](C)C(=O)NCC(=O)N[C@H]1Cc2ccc(O)c(c2)CC2=CN=C(NCCCNC(=O)[C@H](C)NC(=O)[C@H](C)NC(=O)[C@H](C)NC1=O)S2` [Example 91, C-terminal Macrocycle Peptide], in data set [2] (setting [6]), the unstructured conformation was 32%, the α-helical structure is 23% and the β-structure was 45%. In data set [2] (setting [7]), the unstructured conformation was 27%; the α-helical conformation is recorded as 53%; the “β-structure (β-strand and β-turn conformation)” value is 22%.

`CC(C)[C@@H]1NC2=NC=C(Cc3cc(ccc3O)C[C@@H](C(N)=O)NC(=O)[C@H](C)NC(=O)[C@H](C)NC(=O)[C@H](C)NC(=O)[C@H](C)NC1=O)S2` [Thia-V(l)AAAAY (SEQ ID NO. 12)] yielded a ring closure, yield after HPLC in data set [1] (setting [8]) of 35.2%.

In data set [1] (from (5-(hydroxymethyl)thiazol-2-yl)-dVal-Ala-Ala-Gly-Tyr-NH2?, 22-membered ring, TfOH, MeNO2, 6.83 mM, 25.0 °C, 2 steps), `CC(C)[C@H]1NC2=NC=C(Cc3cc(ccc3O)C[C@@H](C(N)=O)NC(=O)CNC(=O)[C@H](C)NC(=O)[C@H](C)NC1=O)S2` [Thia-V(d)AAGY Macrocycle] returned a ring closure, yield after HPLC of 38.7%.

In the case of `CC(C)[C@H]1NC2=NC=C(Cc3cc(ccc3O)C[C@@H](C(N)=O)NC(=O)[C@H](C)NC(=O)[C@H](C)NC1=O)S2` [Thia-V(d)AAY], the ring closure, yield after HPLC in data set [1] (setting [5]) amounted to 16.4%.

Consider `C[C@H](NC(=O)[C@H](C)NC(=O)CNC(=O)[C@@H]1Cc2ccc(O)c(c2)CC2=CN=C(NCC(=O)N[C@@H](C)C(=O)N[C@@H](C)C(=O)N[C@@H](C)C(=O)N1)S2)C(N)=O` [Macrocycle], for which the ring closure, yield after HPLC in data set [1] (from (5-(hydroxymethyl)thiazol-2-yl)-Gly-Ala-Ala-Ala-Tyr-Gly-Ala-Ala-NH2?, 22-membered ring, TfOH, NMM quench, nitroethane/TfOH 1:1, 5.4 mM, 25.0 °C) worked out at 62%.

For `CC[C@H](C)[C@@H]1NC(=O)[C@@H](NC(=O)OCC2c3ccccc3-c3ccccc32)Cc2ccc(OC)c(c2)CC2=CN=C(NCC(=O)NC[C@@H](C(=O)O)NC(=O)[C@H](CCC(=O)OC)NC(=O)CNC1=O)S2` [Macrocycle], the ring closure, yield after HPLC in data set [1] (from (5S,8S,14S,17S)-8-((S)-sec-butyl)-1-(9H-fluoren-9-yl)-17-((2-((5-(hydroxymethyl)thiazol-2-yl)amino)acetamido)methyl)-14-(3-methoxy-3-oxopropyl)-5-(4-methoxybenzyl)-3,6,9,12,15-pentaoxo-2-oxa-4,7,10,13,16-pentaazaoctadecan-18-oic acid, 26-membered ring, TfOH, NMM quench, nitromethane, 5.57 mM, 25.0 °C) was 40.3%.

For `CC(C)[C@@H]1NC2=NC=C(Cc3cc(ccc3O)C[C@@H](C(N)=O)NC(=O)[C@H](C)NC(=O)[C@H](C)NC(=O)[C@H](C)NC(=O)[C@H](C)NC1=O)S2` [Thia-V(d)AAAAY], in data set [1] (setting [8]), the ring closure, yield after HPLC is 22.3%.

Turning to “(5-(hydroxymethyl)thiazol-2-yl)-Gly-Gly-Tyr-NH2?”, the ring closure, conversion in data set [3] was 60%.
